# Experimental data from patent US20110183842A1, “Triazole and Imidazole Compounds, Use Thereof and Agents Containing Them” (BASF SE, priority 2008, published 2011).
# System: Phakopsora pachyrhizi
# Assay: Curative activity against soybean rust caused by Phakopsora pachyrhizi (greenhouse, soybean seedlings)
# Assay type: in vivo
# Conditions: 300 ppm active compound, sprayed to runoff two days after inoculation of soybean seedlings, rated after a further 10 days; untreated plants 90% infected
# Experimental: The active compounds were prepared separately or together as a stock solution with 25 mg of active compound, which was made up to 10 ml with a mixture of acetone and/or DMSO and the emulsifier Uniperol® EL (wetting agent with emulsifying and dispersant action based on ethoxylated alkylphenols) in the volume ratio solvent/emulsifier of from 99 to 1. Subsequently, it was made up to 100 ml with water. This stock solution was diluted with the described solvent/emulsifier/water mixture to the active compound concentration indicated below. Alternatively to this, the active compounds were used as a commercially available ready-to-use solution and diluted with water to the active compound concentration indicated.
# Leaves of soybean seedlings grown in pots were inoculated with a spore suspension of soybean rust (Phakpsora pachyrhizi). The pots were then placed in a chamber of high atmospheric humidity (90 to 95%) and 23 to 27° C. for 24 hours. During this time, the spores germinated and the germ tubes penetrated into the leaf tissue. The infected plants were then cultivated further in a greenhouse at temperatures between 23 and 27° C. and 60 to 80% relative atmospheric humidity. After two days, the plants were sprayed to runoff point with the active compound solution described above at the active compound concentration indicated below. After the spray coating had dried on, the test plants were cultivated in a greenhouse at temperatures between 23 and 27° C. and 60 to 80% relative atmospheric humidity for a further 10 days. The extent of the rust fungus development on the leaves was then determined visually in % infection.
row,SMILES,"extent of the rust fungus development on the leaves, determined visually in % infection [%]"
1,"CC(C)(C)C(O)C(CCCCOc1ccccc1F)n1ncnc1S (stereo not drawn) [I.A1, 8-(2-fluorophenoxy)-4-(5-mercapto-[1,2,4]triazol-1-yl)-2,2-dimethyloctan-3-ol]",15
2,"CC(C)(C)C(O)C(CCCCOc1cc(F)ccc1F)n1ncnc1S (stereo not drawn) [I.A4, 8-(2,5-difluorophenoxy)-4-(5-mercapto-[1,2,4]triazol-1-yl)-2,2-dimethyloctan-3-ol]",15
3,"CC(C)(C)C(O)C(CCCCOc1c(F)cccc1Cl)n1ncnc1S (stereo not drawn) [I.A5, 8-(2-Chloro-6-fluorophenoxy)-4-(5-mercapto-[1,2,4]triazol-1-yl)-2,2-dimethyloctan-3-ol]",15
